Values of other authors as cited in patent US20130023661A1, “FLUORINATING REAGENTS WITH (PERFLUORALKYL) FLUOROPHOSPHATE ANION” (MERCK PATENT GESELLSCHAFT MIT BESCHRANKTER HAFTUNG, priority 2010, published 2013).

Settings: stored in a cool, dry place

guaranteed storage stability: not more than one year
Structure (SMILES): F[N+]12CC[N+](CCl)(CC1)CC2 [F-TEDA-BF4, 1-chloromethyl-4-fluorodiazoniabicyclo[2.2.2]octane bistetrafluoroborate]
